For data set [1] the following is noted: see JP-A-57-53800 and US-A-4309412; cited from earlier work.
The next data set concerns rats. In words: Antipyretic activity in dry yeast-induced fever (rectal temperature). It is filed as in vivo. As to conditions: oral; for Changes in mean temperature, Time 1 hr: rectal temperature 1 hr from dosing; for Changes in mean temperature, Time 2 hr: rectal temperature 2 hr from dosing; for Changes in mean temperature, Time 4 hr: rectal temperature 4 hr from dosing; for Changes in mean temperature, Time 8 hr: rectal temperature 8 hr from dosing; for Changes in mean temperature, Time 0 hr: rectal temperature at 0 hr (18 hours after yeast, at dosing). As to the method:
A 20 % suspension of dry yeast was subcutaneously injected into a Wister line of (masculine) rats (weights: 170-200 g) at a dose of 1 ml/100 g to bring their rectal temperatures up to higher than 39°C(39.13 0.02 ) after the lapse of 18 hours. The drugs to be tested were orally administrated to these rats, six for each group, to measure their rectal temperatures at 1, 2, 4 and 8 hours from dosing. The drugs used were: • (1) 75 mg/Kg (50 mg/Kg calculated as 3-OGP) of the primary composition according to Preparation Example; • (2) 1 mg/Kg of indomethacin (IND); • (3) 5 mg/Kg of indomethacin (IND); • (4) 75 mg/Kg (50 mg/Kg calculated as 3-OGP) of the primary composition according to Preparation Example 1 + 1 mg/Kg of indomethacin - administer at once; and • (5) No drug - control.

Setting [2] is: primary composition 75mg/Kg, IND 1mg/Kg, or both.

Consider 3-oxygermylpropionic acid [3-OGP], for which the “stability in the presence of water” value in data set [1] is reported as “so unstable in the presence of water that its pharmacological activity decreases drastically”.

For the compound `COc1ccc2c(c1)c(CC(=O)O)c(C)n2C(=O)c1ccc(Cl)cc1` [IND, Indomethacin], in the data set on rats (IND 5mg/Kg), the “Changes in mean temperature, Time 1 hr” value came to 38.35 °C; the “Changes in mean temperature, Time 2 hr” value is 37.67 °C; the “Changes in mean temperature, Time 4 hr” value was 37.75 °C; the “Changes in mean temperature, Time 8 hr” value worked out at 37.94 °C. Also, the “Changes in mean temperature, Time 0 hr” value with rats (IND 5mg/Kg) is 39.13 °C. Further, in the data set on rats (setting [2]), the “Changes in mean temperature, Time 1 hr” value worked out at 38.81 °C; the “Changes in mean temperature, Time 2 hr” value is 38.65 °C; the “Changes in mean temperature, Time 4 hr” value stood at 38.44 °C; the “Changes in mean temperature, Time 8 hr” value was found to be 38.30 °C. The “Changes in mean temperature, Time 0 hr” value in the data set with rats (setting [2]) is 39.13 °C.
